Experimental data taken from ChEMBL document CHEMBL1158865, “Mueggelone, a novel inhibitor of fish development from the fresh water cyanobacterium Aphanizomenon flos-aquae” (1997).
Calls of active or inactive are those of the source. The rule behind the calls is not given here.

What was measured:
Danio rerio [1] = organism: Danio rerio; assay: Inhibition of larval development in zebra fish at 10 ug/mL; assay type: functional, organism-based
Danio rerio [2] = assay: Inhibition of larval development in zebra fish assessed as induction of edema in heart at 100 ug/mL after 3 days; assay type: functional, organism-based
Danio rerio [3] = organism: Danio rerio; assay: Inhibition of larval development in zebra fish assessed as effect on larval mortality at 100 ug/mL; assay type: functional, organism-based
Danio rerio [4] = organism: Danio rerio; assay: Inhibition of larval development in zebra fish assessed as effect on larval mortality at 10 ug/mL; assay type: functional, organism-based
Danio rerio [5] = assay: Inhibition of larval development in zebra fish assessed as induction of edema in heart at 100 ug/mL after 5 days; assay type: functional, organism-based
Danio rerio [6] = organism: Danio rerio; assay: Inhibition of larval development in zebra fish assessed as tail bending at 100 ug/mL after 3 days; assay type: functional; set-up: scale not given: the % may be the effect or the level left
Danio rerio [7] = organism: Danio rerio; assay: Inhibition of larval development in zebra fish assessed as tail bending at 100 ug/mL after 5 days; assay type: functional, organism-based
Danio rerio [8] = organism: Danio rerio; assay: Inhibition of larval development in zebra fish assessed as mortality at 10 ug/mL after 24 hrs; assay type: functional; set-up: scale not given: the % may be the effect or the level left
Danio rerio [9] = organism: Danio rerio; assay: Inhibition of larval development in zebra fish assessed as retardation of blood circulatory system development at 10 ug/mL after 32 hrs; assay type: functional, organism-based
Danio rerio [10] = assay: Inhibition of larval development in zebra fish assessed as induction of edema in heart at 10 ug/mL after 3 days; assay type: functional, organism-based
Danio rerio [11] = organism: Danio rerio; assay: Inhibition of larval development in zebra fish assessed as mortality at 10 ug/mL after 48 hrs; assay type: functional; set-up: scale not given: the % may be the effect or the level left
Danio rerio [12] = organism: Danio rerio; assay: Inhibition of larval development in zebra fish assessed as induction of thrombosis in heart at 10 ug/mL after 3 days; assay type: functional, organism-based
Danio rerio [13] = organism: Danio rerio; assay: Inhibition of larval development in zebra fish assessed as retardation of blood circulatory system development at 10 ug/mL after 24 hrs; assay type: functional, organism-based
Danio rerio [14] = organism: Danio rerio; assay: Inhibition of larval development in zebra fish at 1 ug/mL; assay type: functional, organism-based

SMILES	Activity (Danio rerio [1])	Activity (Danio rerio [2])	Activity (Danio rerio [3])	Activity (Danio rerio [4])	Activity (Danio rerio [5])	Activity (Danio rerio [6]) [%]	Activity (Danio rerio [7])	Activity (Danio rerio [8]) [%]	Activity (Danio rerio [9])	Activity (Danio rerio [10])	Activity (Danio rerio [11]) [%]	Activity (Danio rerio [12])	Activity (Danio rerio [13])	Activity (Danio rerio [14])
C=C(C)[C@@H]1CC[C@]2(C)CC[C@]3(C)[C@H](CC[C@@H]4[C@@]5(C)CC[C@H](OC(C)=O)C(C)(C)[C@@H]5CC[C@]43C)[C@@H]12 [LUPENYL ACETATE]	inactive	Active	inactive	inactive	Active	30	Active							
CC/C=C\C[C@@H]1O[C@H]1/C=C/C1CCCCCCCC(=O)O1 (relative stereo) [MUEGGELONE]								45	Active	Active	45	Active	Active	inactive
